Patent US8633219B2, “Combination therapy” (Japan Tobacco Inc., priority 2004, dated 2014)

Legend:
CEM-SS cells = assay: Cellular cytotoxicity by MTS staining in the combination assay; assay type: cell-based; details: combinations with other anti-HIV agents; Compound A 4 nM high-test concentration
Method: The format of the test plate was standardized as follows. Each plate contains cell control wells (cells only), virus control wells (cells plus virus), drug cytotoxicity wells (cells plus drug only), drug colorimetric control wells (drug only), as well as experimental wells (drug plus cells plus virus). The final volume in each well was 200 μl. Samples were evaluated with triplicate measurements using a checkerboard dilution scheme; […]; antiviral efficacy and cellular cytotoxicity were monitored by MTS staining at the experimental endpoint.
At assay termination, the assay plates were stained with the soluble tetrazolium-based dye MTS (CellTiter96 Reagent, Promega) to determine cell viability and quantify compound toxicity. MTS is metabolized by the mitochondrial enzymes of metabolically active cells to yield a soluble formazan product, allowing the rapid quantitative analysis of cell viability and compound cytotoxicity. […] The microtiter plates were then incubated 4-6 hrs at 37° C. for the HIV cytoprotection assay; the incubation intervals were chosen based on empirically determined times for optimal dye reduction. Adhesive plate sealers were used in place of the lids, the sealed plate was inverted several times to mix the soluble formazan product and the plate was read spectrophotometrically at 490/650 nm with a Molecular Devices Vmax plate reader.

HIV-1IIIB = assay: Drug combination anti-HIV-1 cytoprotection assay (MacSynergy II) in CEM-SS cells infected with HIV-1IIIB; assay type: cell-based; details: in combination with Compound A; for Antagonism Volume, Result 1 / Synergy Volume, Result 1 / Antagonism Volume, Result 2 / Synergy Volume, Result 2 / Antagonism Volume, Result 3 / Synergy Volume, Result 3: 95% confidence interval; for Antagonism Volume, Result 1 / Synergy Volume, Result 1: assay 1; for Antagonism Volume, Result 2 / Synergy Volume, Result 2: assay 2; for Antagonism Volume, Result 3 / Synergy Volume, Result 3: assay 3; for Mean Antagonism Volume / Mean Synergy Volume: n = 3
Method: This work was performed using the Prichard and Shipman MacSynergy II three-dimensional model for statistical evaluation of combination anti-HIV assays. Using a standard microtiter plate format, each combination assay was performed in CEM-SS T-lymphocytic cells acutely infected with the a laboratory-adapted strain, HIV-1IIIB, and viral growth/inhibition was evaluated by measuring by monitoring virus-induced cytopathic effects (CPE) at the experimental endpoint.
AZT was dissolved in sterile dH2O and the remainder of the control compounds were dissolved in DMSO for analysis in the combination assays. […] CEM-SS cells were passaged in T-75 flasks prior to use in the antiviral assay. On the day preceding the assay, the cells were split 1:2 to assure they were in an exponential growth phase at the time of infection. Total cell and viability quantification was performed using a hemacytometer and trypan blue exclusion.
The virus used for these tests was the lymphocytropic virus strain HIV-1IIIB. This virus was obtained from the NIH AIDS Research and Reference Reagent Program and was grown in CEM-SS cells for the production of stock virus pools. For each assay, a pre-titered aliquot of virus was removed from the freezer (−80° C.) and allowed to thaw slowly to room temperature in a biological safety cabinet. The virus was resuspended and diluted into tissue culture medium such that the amount of virus added to each well in a volume of 50 μl was the amount determined to give between 85 to 95% cell killing at 6 days post-infection.
The format of the test plate was standardized as follows. Each plate contains cell control wells (cells only), virus control wells (cells plus virus), drug cytotoxicity wells (cells plus drug only), drug colorimetric control wells (drug only), as well as experimental wells (drug plus cells plus virus). The final volume in each well was 200 μl.
At assay termination, the assay plates were stained with the soluble tetrazolium-based dye MTS (CellTiter96 Reagent, Promega) to determine cell viability and quantify compound toxicity. […] At termination of the assay, 20 μl of MTS reagent was added per well. The microtiter plates were then incubated 4-6 hrs at 37° C. for the HIV cytoprotection assay; the incubation intervals were chosen based on empirically determined times for optimal dye reduction. Adhesive plate sealers were used in place of the lids, the sealed plate was inverted several times to mix the soluble formazan product and the plate was read spectrophotometrically at 490/650 nm with a Molecular Devices Vmax plate reader.
Combination antiviral assays were performed with CEM-SS cells utilizing the HIV-1IIIB strain of virus as described above.
The expected additive antiviral protection was subtracted from the experimentally determined antiviral activity at each combination concentration resulting in a positive value (synergy), a negative value (antagonism), or zero (additivity). The results of the combination assays are presented three dimensionally at each combination concentration, yielding a surface of activity extending above (synergy) or below (antagonism) the plane of additivity. The volume of the surface is calculated and expressed as a synergy volume (μM^2%) calculated at the 95% confidence interval.
Slightly synergistic activity and highly synergistic activity have been defined as yielding synergy volumes of 50-100 μM^2% and >100 μM^2%, respectively.

SMILES | synergistic cytotoxicity (CEM-SS cells) | Antagonism Volume, Result 1 (HIV-1IIIB) | Synergy Volume, Result 1 (HIV-1IIIB) | Antagonism Volume, Result 2 (HIV-1IIIB) | Synergy Volume, Result 2 (HIV-1IIIB) | Antagonism Volume, Result 3 (HIV-1IIIB) | Synergy Volume, Result 3 (HIV-1IIIB) | Mean Antagonism Volume (HIV-1IIIB) | Mean Synergy Volume (HIV-1IIIB)
COc1cc2c(cc1Cc1cccc(Cl)c1F)c(=O)c(C(=O)O)cn2[C@H](CO)C(C)C [Compound A, (S)-6-(3-Chloro-2-fluorobenzyl)-1-(1-hydroxymethyl-2-methylpropyl)-7-methoxy-4-oxo-1,4-dihydroquinoline-3-carboxylic acid] | no evidence of synergistic cytotoxicity | – | – | – | – | – | – | – | –
Cc1cn([C@H]2C[C@H](N=[N+]=[N-])[C@@H](CO)O2)c(=O)[nH]c1=O [AZT, zidovudine] | – | −21 μM^2% | 46 μM^2% | −44 μM^2% | 19 μM^2% | −23 μM^2% | 57 μM^2% | −29.3 μM^2% | 40.7 μM^2%
CC(C)(C)NC(=O)[C@@H]1CN(Cc2cccnc2)CCN1C[C@@H](O)C[C@@H](Cc1ccccc1)C(=O)N[C@H]1c2ccccc2C[C@H]1O [IDV, indinavir] | – | −7 μM^2% | 57 μM^2% | −23 μM^2% | 13 μM^2% | −26 μM^2% | 10 μM^2% | −18.7 μM^2% | 26.7 μM^2%
O=C1Nc2ccc(Cl)cc2[C@@](C#CC2CC2)(C(F)(F)F)O1 [EFV, efavirenz] | – | −9 μM^2% | 26 μM^2% | 0 μM^2% | 54 μM^2% | −7 μM^2% | 26 μM^2% | −5.3 μM^2% | 35.3 μM^2%
C[C@H](Cn1cnc2c(N)ncnc21)OCP(=O)(O)O [PMPA, tenofovir] | – | −23 μM^2% | 29 μM^2% | −4 μM^2% | 43 μM^2% | −60 μM^2% | 13 μM^2% | −29.0 μM^2% | 28.3 μM^2%
Cc1c(O)cccc1C(=O)N[C@@H](CSc1ccccc1)[C@H](O)CN1C[C@H]2CCCC[C@H]2C[C@H]1C(=O)NC(C)(C)C [NFV, nelfinavir] | – | −3 μM^2% | 44 μM^2% | −3 μM^2% | 38 μM^2% | −46 μM^2% | 20 μM^2% | −17.3 μM^2% | 34. μM^2%
